Assay results as given in ChEMBL document CHEMBL1157413, “Pyronane monoterpenoids from the fruit of Gardenia jasminoides” (J Nat Prod, 2008).

Molecular target: T1, Tyrosinase (Agaricus bisporus, UniProt O42713)
T1 sequence (O42713 whole entry): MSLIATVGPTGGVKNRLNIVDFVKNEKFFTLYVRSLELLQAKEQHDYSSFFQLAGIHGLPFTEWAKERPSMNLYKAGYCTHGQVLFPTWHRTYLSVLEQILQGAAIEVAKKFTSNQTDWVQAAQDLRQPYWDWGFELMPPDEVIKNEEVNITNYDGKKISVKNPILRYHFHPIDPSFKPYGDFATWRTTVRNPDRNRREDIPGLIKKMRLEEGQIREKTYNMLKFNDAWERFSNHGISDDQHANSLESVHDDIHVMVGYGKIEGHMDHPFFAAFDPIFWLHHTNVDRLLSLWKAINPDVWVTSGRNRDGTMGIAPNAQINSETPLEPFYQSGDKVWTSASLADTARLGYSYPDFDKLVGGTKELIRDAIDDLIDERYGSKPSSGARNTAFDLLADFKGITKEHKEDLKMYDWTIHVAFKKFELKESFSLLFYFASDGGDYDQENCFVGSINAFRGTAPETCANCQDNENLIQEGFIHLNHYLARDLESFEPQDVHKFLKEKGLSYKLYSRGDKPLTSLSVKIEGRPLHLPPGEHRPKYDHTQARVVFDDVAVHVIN
Description: Inhibition of mushroom tyrosinase activity after 10 mins

CC1(C)CC(=O)C=C(CO)[C@H]1CO [JASMINODIOL]
IC50: 2200 µM
